Measurements: patent publication US8592431B2, “Fused ring compound and use thereof” (Takeda Pharmaceutical Company Limited, priority 2009, dated 2013)

The molecules below were run against human AT1 receptor (Homo sapiens (Human), UniProt P30556) (assay: AT1 receptor antagonistic activity: [125I]-angiotensin II binding assay with AT1 membrane). Conditions: 22.5 pM [125I]-angiotensin II, human AT1 receptor-expressing CHO-K1 membrane, 1 hr room temperature.
Method: Evaluation of AT1 Receptor Antagonistic Activity
(1) Preparation of Human AT1 Receptor-Expressing CHO-K1 Cellular Membrane Fraction
CHO-K1 cell (RIKEN, Japan) capable of stable expression of human AT1 receptor was cultured, recovered, suspended in homogenize buffer (10 mM NaHCO3 (pH 7.4), 5 mM EDTA, 1× Complete EDTA free) [manufactured by Roche, Switzerland], and homogenized. The homogenate was centrifuged at low-speed (900×g, 10 min, 4° C.), and the supernatant was recovered and ultracentrifuged (90,000×g, 1 hr, 4° C.). The supernatant was discarded, and the pellets were resuspended in suspension buffer (50 mM Tris (pH 7.4), 1 mM EDTA, 1× Complete EDTA free).
(2) Evaluation of AT1 Receptor Antagonistic Activity
(9 μg) in the presence of AT1 membrane and test compound in 100 μL (total reaction volume) of reaction buffer (50 mM Tris (pH 7.4), 10 mM MgCl2 supplemented or not supplemented with 0.3 mg/mL fatty acid-free bovine serum albumin [manufactured by Wako Pure Chemical Industries, Ltd., Japan]). The reaction mixture was incubated in 96 well polypropylene plate for 1 hr at room temperature, and the reaction was quenched by rapid filtration (96 well cell harvester) through a GF/C filter treated with wash buffer (50 mM Tris (pH 7.4)). Subsequently, the filter was washed 5 times with 0.3 mL of ice-cooled wash buffer. […] Total binding was measured in the presence of 1% DMSO and nonspecific binding was measured in the presence of 1 μM Candesartan.

Chain of human AT1 receptor (P30556 whole entry): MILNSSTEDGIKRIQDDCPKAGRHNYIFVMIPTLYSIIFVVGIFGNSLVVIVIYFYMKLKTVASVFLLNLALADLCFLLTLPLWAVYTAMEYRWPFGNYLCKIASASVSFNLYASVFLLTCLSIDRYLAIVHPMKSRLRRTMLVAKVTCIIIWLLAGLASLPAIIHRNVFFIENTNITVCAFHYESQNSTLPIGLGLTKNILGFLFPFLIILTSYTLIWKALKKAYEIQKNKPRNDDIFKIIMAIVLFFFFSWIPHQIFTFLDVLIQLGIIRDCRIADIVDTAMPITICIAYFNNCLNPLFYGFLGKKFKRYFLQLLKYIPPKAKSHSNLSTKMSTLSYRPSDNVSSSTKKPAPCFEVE

IC50 [nM]	Compound
2.2	CCCc1c(Cc2ccc(-c3ccccc3-c3noc(=O)[nH]3)cc2F)c(=O)n([C@H]2CC[C@H](OC(C)C(C)(C)O)CC2)c2ncnn12 (single isomer, unassigned) [Example 248, 6-{[3-fluoro-2′-(5-oxo-4,5-dihydro-1,2,4-oxadiazol-3-yl)biphenyl-4-yl]methyl}-4-[trans-4-(2-hydroxy-1,2-dimethylpropoxy)cyclohexyl]-7-propyl[1,2,4]triazolo[1,5-a]pyrimidin-5(4H)-one]
1.8	CCCc1c(Cc2ccc(-c3ccccc3-c3nc(=O)o[nH]3)cc2)c(=O)n(C2CCC(OCC(C)O)CC2)c2ccnn12 (single isomer, unassigned) [Example 440, 4-[trans-4-(2-hydroxypropoxy)cyclohexyl]-6-{[2′-(5-oxo-4,5-dihydro-1,2,4-oxadiazol-3-yl)biphenyl-4-yl]methyl}-7-propylpyrazolo[1,5-a]pyrimidin-5(4H)-one (Optically Active Form, Retention Time: Short)]
1.6	CCCc1c(Cc2ccc(-c3ccccc3-c3noc(=O)[nH]3)cc2)c(=O)n(C2CCC(OCC(C)O)CC2)c2ccnn12 (single isomer, unassigned) [Example 441, 4-[trans-4-(2-hydroxypropoxy)cyclohexyl]-6-{[2′-(5-oxo-4,5-dihydro-1,2,4-oxadiazol-3-yl)biphenyl-4-yl]methyl}-7-propylpyrazolo[1,5-a]pyrimidin-5(4H)-one (Optically Active Form, Retention Time: Long)]

Each molecule was assayed against human PPARγ (Homo sapiens (Human), UniProt P37231) (assay: PPARγ agonistic activity: luciferase reporter assay in PPARγ:RXRα:4ERPP/CHO-K1 cells). Conditions: CHO-K1, test compound 10^−6 M; control compound X (1 μM) taken as 100%.
Chain of human PPARγ (P37231 29-505): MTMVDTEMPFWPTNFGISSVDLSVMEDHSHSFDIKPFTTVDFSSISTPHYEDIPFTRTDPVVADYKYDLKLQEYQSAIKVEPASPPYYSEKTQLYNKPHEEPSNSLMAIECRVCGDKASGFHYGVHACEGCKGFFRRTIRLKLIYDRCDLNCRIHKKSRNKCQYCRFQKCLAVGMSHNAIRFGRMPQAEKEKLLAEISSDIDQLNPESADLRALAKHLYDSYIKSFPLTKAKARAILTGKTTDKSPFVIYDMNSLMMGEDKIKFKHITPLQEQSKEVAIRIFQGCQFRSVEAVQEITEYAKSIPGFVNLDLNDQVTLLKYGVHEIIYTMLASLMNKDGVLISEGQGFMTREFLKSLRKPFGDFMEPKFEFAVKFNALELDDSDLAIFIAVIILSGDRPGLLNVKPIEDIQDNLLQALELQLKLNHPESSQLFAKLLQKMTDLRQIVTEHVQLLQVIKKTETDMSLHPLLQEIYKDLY
Chain of human PPARγ (P19793 whole entry partner): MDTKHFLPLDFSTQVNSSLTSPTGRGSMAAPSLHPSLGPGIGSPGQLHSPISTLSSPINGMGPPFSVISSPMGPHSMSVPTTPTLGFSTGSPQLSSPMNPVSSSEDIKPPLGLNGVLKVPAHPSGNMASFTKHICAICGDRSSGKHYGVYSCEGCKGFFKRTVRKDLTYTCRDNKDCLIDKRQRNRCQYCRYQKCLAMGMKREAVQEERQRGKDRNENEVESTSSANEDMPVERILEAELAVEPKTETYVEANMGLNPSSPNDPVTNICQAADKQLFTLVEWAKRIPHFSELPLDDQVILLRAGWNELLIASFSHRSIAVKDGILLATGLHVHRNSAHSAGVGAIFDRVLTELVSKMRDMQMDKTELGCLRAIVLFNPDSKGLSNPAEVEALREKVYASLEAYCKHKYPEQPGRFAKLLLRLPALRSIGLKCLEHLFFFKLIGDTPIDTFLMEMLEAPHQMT
Type: cell-based
From the text: Evaluation of PPARγ Agonistic Activity
(5) Introduction of Human PPARγ- and RXRα-Expression Plasmid and Reporter Plasmid into Cho-K1 Cell as Well as Establishment of Expressed Cell
A CHO-K1 cell cultured in a 150 cm^2 cell culture flask [manufactured by Corning Costar Corporation, USA] comprising Ham's F12 medium [manufactured by INVITROGEN, USA] supplemented with 10% fetal bovine serum [manufactured by INVITROGEN, USA] was taken off by treating with 0.5 g/L trypsin-0.2 g/L EDTA (ethylenediamine tetraacetate) [manufactured by Life Technologies, Inc., USA], and then the cell was washed with PBS (Phosphate-buffered saline) [manufactured by INVITROGEN, USA], centrifuged (1000 rpm, 5 minutes) and suspended in PBS. Subsequently, DNA was introduced into the cell under the conditions shown below using GENE PULSER [manufactured by Bio-Rad Laboratories, USA].
Namely, to a cuvette having a 0.4 cm gap were added 8×10^6 cells and 10 μg of plasmid pVgRXR2-hPPARγ obtained in the above-mentioned (4) and 10 μg of reporter plasmid pGL3-4ERPP-TK neo obtained in the above-mentioned (3), which was subjected to electroporation at the voltage of 0.25 kV under the capacitance of 960 μF. Subsequently, the cell was transferred into a F12 medium comprising 10% fetal bovine serum and cultured for 24 hours, and then the cell was taken off again and centrifuged. Then, the pellet was suspended in Ham's F12 medium comprising 10% fetal bovine serum supplemented with 500 μg/ml of Geneticin [manufactured by INVITROGEN, USA] and 250 μg/ml of Zeocin [manufactured by INVITROGEN, USA]. The obtained suspension was diluted to the density of 10^4 cells/ml and inoculated in a 96-well plate [manufactured by Corning Costar Corporation, USA], which was cultured in a CO2 gas incubator at 37° C., whereby obtaining a Geneticin- and Zeocin-resistant transformant.
Subsequently, after the transformed cell line thus obtained was cultured in a 24-well plate [manufactured by Corning Costar Corporation, USA], a cell line in which expression of the luciferase was induced, i.e., PPARγ:RXRα:4ERPP/CHO-K1 cell was selected by the addition of 10 μM pioglitazone hydrochloride.
(6) Evaluation of PPARγ Agonistic Activity
PPARγ:RXRα:4ERPP/CHO-K1 cells obtained in the above-mentioned (5) were cultured in F12 medium [manufactured by INVITROGEN, USA] containing 10% fetal bovine serum [manufactured by MOREGATE, Australia], seeded in a 96 well half-area white plate [manufactured by Corning Coster Corporation, USA] at 5×10^3 cells/well, and cultured in a CO2 incubator at 37° C. overnight.
Then, the medium was removed from the 96 well half-area white plate, hamF12 medium containing 0.1% fatty acid-free bovine serum albumin (BSA) (45 μl) and a test compound (5 μl) were added, and the mixture was cultured in the CO2 incubator at 37° C. for 1 day. After removing the medium, Picagene 7.5 [manufactured by Dai Nippon Inki, Japan] (20 μl) diluted 2-fold with HBSS (HANKS' BALANCED SALT SOLUTION) [manufactured by BIO […], USA] was added, and the mixture was stirred. Using 1420 ARVO Multilabel Counter [manufactured by PerkinElmer, USA], luciferase activity was measured.
The percentage (%) was calculated from the luciferase activity of the test compound when the luciferase activity of the control compound (compound X: 5-[3-(4-{[2-(2-furyl)-5-methyl-1,3-oxazol-4-yl]methoxy}-3-methoxyphenyl)propyl]-1,3-oxazolidine-2,4-dione) (1 μM) was taken as 100% and the luciferase activity of the test compound non-administration group was taken as 0%.

activation at 1 µM [%]	Compound
17	CCCc1c(Cc2ccc(-c3ccccc3-c3noc(=O)[nH]3)cc2)c(=O)n([C@H]2CC[C@H](OC(C)C(C)(C)O)CC2)c2ncnn12 (single isomer, unassigned) [Example 318, 4-[trans-4-(2-hydroxy-1,2-dimethylpropoxy)cyclohexyl]-6-{[2′-(5-oxo-4,5-dihydro-1,2,4-oxadiazol-3-yl)biphenyl-4-yl]methyl}-7-propyl[1,2,4]triazolo[1,5-a]pyrimidin-5(4H)-one (Retention Time: Short)]
17	CCCc1c(Cc2ccc(-c3ccccc3-c3noc(=O)[nH]3)cc2F)c(=O)n([C@H]2CC[C@H](OC(C)C(C)(C)O)CC2)c2ncnn12 (single isomer, unassigned; (+)) [Example 247, (+)-6-{[3-fluoro-2′-(5-oxo-4,5-dihydro-1,2,4-oxadiazol-3-yl)biphenyl-4-yl]methyl}-4-[trans-4-(2-hydroxy-1,2-dimethylpropoxy)cyclohexyl]-7-propyl[1,2,4]triazolo[1,5-a]pyrimidin-5(4H)-one]

Same assay, conditions: test compound 10^−6 M; control compound X (1 μM) taken as 100%

PPARγ agonistic activity (activation % (10^−6 M)) [%]	Compound
19	CCCc1c(Cc2ccc(-c3ccccc3-c3noc(=O)[nH]3)cc2F)c(=O)n([C@H]2CC[C@H](OC(C)C(C)(C)O)CC2)c2ncnn12 (single isomer, unassigned) [Example 248, 6-{[3-fluoro-2′-(5-oxo-4,5-dihydro-1,2,4-oxadiazol-3-yl)biphenyl-4-yl]methyl}-4-[trans-4-(2-hydroxy-1,2-dimethylpropoxy)cyclohexyl]-7-propyl[1,2,4]triazolo[1,5-a]pyrimidin-5(4H)-one]
16	CCCc1c(Cc2ccc(-c3ccccc3-c3noc(=O)[nH]3)cc2)c(=O)n([C@H]2CC[C@H](OC(C)C(C)(C)O)CC2)c2ncnn12 (single isomer, unassigned) [Example 319, 4-[trans-4-(2-hydroxy-1,2-dimethylpropoxy)cyclohexyl]-6-{[2′-(5-oxo-4,5-dihydro-1,2,4-oxadiazol-3-yl)biphenyl-4-yl]methyl}-7-propyl[1,2,4]triazolo[1,5-a]pyrimidin-5(4H)-one (Retention Time: Long)]
19	CCCc1c(Cc2ccc(-c3ccccc3-c3noc(=O)[nH]3)cc2)c(=O)n(C2CCC(OCC(C)O)CC2)c2ccnn12 (single isomer, unassigned) [Example 441, 4-[trans-4-(2-hydroxypropoxy)cyclohexyl]-6-{[2′-(5-oxo-4,5-dihydro-1,2,4-oxadiazol-3-yl)biphenyl-4-yl]methyl}-7-propylpyrazolo[1,5-a]pyrimidin-5(4H)-one (Optically Active Form, Retention Time: Long)]
26	CCCCc1c(Cc2ccc(-c3ccccc3-c3noc(=O)[nH]3)cc2)c(=O)n(C2CCOC(C)C2)c2ncnn12 (stereo not drawn) [Example 160, 7-butyl-4-(2-methyltetrahydro-2H-pyran-4-yl)-6-{[2′-(5-oxo-4,5-dihydro-1,2,4-oxadiazol-3-yl)biphenyl-4-yl]methyl}[1,2,4]triazolo[1,5-a]pyrimidin-5(4H)-one]
47	CCCCc1c(Cc2ccc(-c3ccccc3-c3noc(=O)[nH]3)cc2)c(=O)n(C2CCOC(C)C2)c2ncnn12 (stereo not drawn) [Example 161, 7-butyl-4-(2-methyltetrahydro-2H-pyran-4-yl)-6-{[2′-(5-oxo-4,5-dihydro-1,2,4-oxadiazol-3-yl)biphenyl-4-yl]methyl}[1,2,4]triazolo[1,5-a]pyrimidin-5(4H)-one]
16	CCCc1c(Cc2ccc(-c3ccccc3-c3noc(=O)[nH]3)cc2)c(=O)n([C@H]2CC[C@H](OC(C)C(C)(C)O)CC2)c2ncnn12 (stereo partly drawn) [Example 300, 4-[trans-4-(2-hydroxy-1,2-dimethylpropoxy)cyclohexyl]-6-{[2′-(5-oxo-4,5-dihydro-1,2,4-oxadiazol-3-yl)biphenyl-4-yl]methyl}-7-propyl[1,2,4]triazolo[1,5-a]pyrimidin-5(4H)-one]

These molecules were tested on Male SHRs (assay: Antihypertensive effect: mean blood pressure in SHRs after oral administration). Conditions: SHR, dose 3 mg/kg, during 24 hours after administration.
Type: in vivo, rat
Method: Male SHRs (28-40 weeks old, Japan SLC, Inc., Japan) were anesthetized with sodium pentobarbital (50 mg/kg, i.p.). The left femoral artery was cannulated with a polyethylene catheter filled with saline comprising heparin (200 U/mL). The catheter was exteriorized at the back of the neck and each SHR was individually housed in a cage and left two or four days to recover. The mean blood pressure (MBP) was obtained from the systemic blood pressure which was monitored from the femoral artery using a pressure transducer connected to a polygraph system (Nihon Kohden Corporation). The heart rate was measured from the blood pressure pulse intervals. The rats which had MBP over 150 mmHg were used for the experiment. When the blood pressure had stabilized, vehicle (0.5 w/v % methylcellulose) or compounds were orally administered. All compounds were suspended in 0.5 w/v % methylcellulose and orally administered at a volume of 2 mL/kg. The MBP was measured during 24 hours after the administration.

Compound	Maximum MBP reduction (mmHg)
CCCc1c(Cc2ccc(-c3ccccc3C3=NOC(O)N3)cc2F)c(=O)n(C2CCC(OC(C)C(C)(C)O)CC2)c2ncnn12.[K+] (single isomer, unassigned; (-)) [Example 459, (−)-6-{[3-fluoro-2′-(5-oxo-4,5-dihydro-1,2,4-oxadiazol-3-yl)biphenyl-4-yl]methyl}-4-[trans-4-(2-hydroxy-1,2-dimethylpropoxy)cyclohexyl]-7-propyl[1,2,4]triazolo[1,5-a]pyrimidin-5(4H)-one potassium salt (Retention Time: Long)]	64
